Experimental data: ChEMBL document CHEMBL4837183, “Antiproliferative Bufadienolides from the Bulbs of Drimia altissima” (2021)

How the values were obtained:
Assay type in all cases: functional
MDA-MB-231 = assay: Growth inhibition of human MDA-MB-231 cells measured after 48 hrs by SRB assay
A549 = assay: Growth inhibition of human A549 cells measured after 48 hrs by SRB assay
UACC-257 = assay: Growth inhibition of human UACC-257 cells measured after 48 hrs by SRB assay
HOP-92 = assay: Growth inhibition of human HOP-92 cells measured after 48 hrs by SRB assay
UO-31 = assay: Growth inhibition of human UO-31 cells measured after 48 hrs by SRB assay
KM12 = assay: Growth inhibition of human KM12 cells measured after 48 hrs by SRB assay
SN12C = assay: Growth inhibition of human SN12C cells measured after 48 hrs by SRB assay
NCI-H460 = assay: Growth inhibition of human NCI-H460 cells measured after 48 hrs by SRB assay
CAKI-1 = assay: Growth inhibition of human CAKI-1 cells measured after 48 hrs by SRB assay
NCI-H226 = assay: Growth inhibition of human NCI-H226 cells measured after 48 hrs by SRB assay
HT-29 = assay: Growth inhibition of human HT-29 cells measured after 48 hrs by SRB assay
NCI-H522 = assay: Growth inhibition of human NCI-H522 cells measured after 48 hrs by SRB assay
SW-620 = assay: Growth inhibition of human SW-620 cells measured after 48 hrs by SRB assay
COLO 205 = assay: Growth inhibition of human COLO 205 cells measured after 48 hrs by SRB assay
SK-MEL-28 = assay: Growth inhibition of human SK-MEL-28 cells measured after 48 hrs by SRB assay
U-251 = assay: Growth inhibition of human U-251 cells measured after 48 hrs by SRB assay
OVCAR-3 = assay: Growth inhibition of human OVCAR-3 cells measured after 48 hrs by SRB assay
HCC 2998 = assay: Growth inhibition of human HCC 2998 cells measured after 48 hrs by SRB assay
OVCAR-5 = assay: Growth inhibition of human OVCAR-5 cells measured after 48 hrs by SRB assay
CCRF-CEM = assay: Growth inhibition of human CCRF-CEM cells measured after 48 hrs by SRB assay
MDA-MB-435 = assay: Growth inhibition of human MDA-MB-435 cells measured after 48 hrs by SRB assay
MDA-MB-468 = assay: Growth inhibition of human MDA-MB-468 cells measured after 48 hrs by SRB assay
OVCAR-8 = assay: Growth inhibition of human OVCAR-8 cells measured after 48 hrs by SRB assay
Hs-578T = assay: Growth inhibition of human Hs-578T cells measured after 48 hrs by SRB assay
NCI/ADR-RES = assay: Growth inhibition of human NCI/ADR-RES cells measured after 48 hrs by SRB assay
ACHN = assay: Growth inhibition of human ACHN cells measured after 48 hrs by SRB assay
MOLT-4 = assay: Growth inhibition of human MOLT-4 cells measured after 48 hrs by SRB assay
DU-145 = assay: Growth inhibition of human DU-145 cells measured after 48 hrs by SRB assay
NCI-H322M = assay: Growth inhibition of human NCI-H322M cells measured after 48 hrs by SRB assay
UACC-62 = assay: Growth inhibition of human UACC-62 cells measured after 48 hrs by SRB assay
HCT-15 = assay: Growth inhibition of human HCT-15 cells measured after 48 hrs by SRB assay
HCT-116 = assay: Growth inhibition of human HCT-116 cells measured after 48 hrs by SRB assay
786-0 = assay: Growth inhibition of human 786-0 cells measured after 48 hrs by SRB assay
HL-60 = assay: Growth inhibition of human HL-60 cells measured after 48 hrs by SRB assay
SK-MEL-5 = assay: Growth inhibition of human SK-MEL-5 cells measured after 48 hrs by SRB assay
PC-3 = assay: Growth inhibition of human PC-3 cells measured after 48 hrs by SRB assay
HOP-62 = assay: Growth inhibition of human HOP-62 cells measured after 48 hrs by SRB assay
M14 = assay: Growth inhibition of human M14 cells measured after 48 hrs by SRB assay
SNB-75 = assay: Growth inhibition of human SNB-75 cells measured after 48 hrs by SRB assay
Malme-3M = assay: Growth inhibition of human Malme-3M cells measured after 48 hrs by SRB assay
SK-MEL-2 = assay: Growth inhibition of human SK-MEL-2 cells measured after 48 hrs by SRB assay
SF-539 = assay: Growth inhibition of human SF-539 cells measured after 48 hrs by SRB assay
SK-OV-3 = assay: Growth inhibition of human SK-OV-3 cells measured after 48 hrs by SRB assay
RXF 393 = assay: Growth inhibition of human RXF 393 cells measured after 48 hrs by SRB assay
IGROV-1 = assay: Growth inhibition of human IGROV-1 cells measured after 48 hrs by SRB assay
NCI-H23 = assay: Growth inhibition of human NCI-H23 cells measured after 48 hrs by SRB assay
SF-268 = assay: Growth inhibition of human SF-268 cells measured after 48 hrs by SRB assay
SF-295 = assay: Growth inhibition of human SF-295 cells measured after 48 hrs by SRB assay
SNB-19 = assay: Growth inhibition of human SNB-19 cells measured after 48 hrs by SRB assay
T47D = assay: Growth inhibition of human T47D cells measured after 48 hrs by SRB assay
TK-10 = assay: Growth inhibition of human TK-10 cells measured after 48 hrs by SRB assay
LOX IMVI = assay: Growth inhibition of human LOX IMVI cells measured after 48 hrs by SRB assay
BT-549 = assay: Growth inhibition of human BT-549 cells measured after 48 hrs by SRB assay
SR = assay: Growth inhibition of human SR cells measured after 48 hrs by SRB assay
K562 = assay: Growth inhibition of human K562 cells measured after 48 hrs by SRB assay
A498 = assay: Growth inhibition of human A498 cells measured after 48 hrs by SRB assay
MCF7 = assay: Growth inhibition of human MCF7 cells measured after 48 hrs by SRB assay

`C[C@]12C[C@H](O)[C@H]3[C@@H](CCC4=C[C@@H](O[C@@H]5O[C@H](CO)[C@@H](O)[C@H](O)[C@H]5O)CC[C@@]43CO)[C@@]1(O)CC[C@@H]2c1ccc(=O)oc1` showed a GI50 (MDA-MB-231) of 53 nM, a GI50 (A549) of 4 nM and a GI50 (UACC-257) of 42 nM. For the same compound, the GI50 (HOP-92) was 22 nM, the GI50 (UO-31) was 9 nM and the GI50 (KM12) was 29 nM. For the same compound, the GI50 (SN12C) was 6 nM, the GI50 (NCI-H460) was 6 nM and the GI50 (CAKI-1) was 8 nM. It also gave a GI50 (NCI-H226) of 22 nM, a GI50 (HT-29) of 15 nM and a GI50 (NCI-H522) of 6 nM. The GI50 (SW-620) was 17 nM, the GI50 (COLO 205) was 43 nM and the GI50 (SK-MEL-28) was 37 nM. It also gave a GI50 (U-251) of 25 nM, a GI50 (OVCAR-3) of 8 nM and a GI50 (HCC 2998) of 52 nM. It also gave a GI50 (OVCAR-5) of 17 nM, a GI50 (CCRF-CEM) of 7 nM and a GI50 (MDA-MB-435) of 33 nM. The GI50 (MDA-MB-468) was 44 nM, the GI50 (OVCAR-8) was 15 nM and the GI50 (Hs-578T) was 6 nM. It also gave a GI50 (NCI/ADR-RES) of 8 nM, a GI50 (ACHN) of 5 nM and a GI50 (MOLT-4) of 7 nM. The GI50 (DU-145) was 6 nM, the GI50 (NCI-H322M) was 7 nM and the GI50 (UACC-62) was 25 nM. For the same compound, the GI50 (HCT-15) was 17 nM, the GI50 (HCT-116) was 5 nM and the GI50 (786-0) was 7 nM. The GI50 (HL-60) was 7 nM, the GI50 (SK-MEL-5) was 20 nM and the GI50 (PC-3) was 13 nM. For the same compound, the GI50 (HOP-62) was 6 nM, the GI50 (M14) was 31 nM and the GI50 (SNB-75) was 23 nM. The GI50 (Malme-3M) was 17 nM, the GI50 (SK-MEL-2) was 45 nM and the GI50 (SF-539) was 3 nM. For the same compound, the GI50 (SK-OV-3) was 51 nM, the GI50 (RXF 393) was 5 nM and the GI50 (IGROV-1) was 16 nM. It also gave a GI50 (NCI-H23) of 8 nM, a GI50 (SF-268) of 7 nM and a GI50 (SF-295) of 11 nM. For the same compound, the GI50 (SNB-19) was 48 nM, the GI50 (T47D) was 24 nM and the GI50 (TK-10) was 8 nM. The GI50 (LOX IMVI) was 18 nM, the GI50 (BT-549) was 4 nM and the GI50 (SR) was 24 nM. It also gave a GI50 (K562) of 30 nM, a GI50 (A498) of 12 nM and a GI50 (MCF7) of 9 nM.

In the case of `C[C@]12CC[C@H](O)C=C1CC[C@@H]1[C@@H]2[C@@H](O)C[C@]2(C)[C@@H](c3ccc(=O)oc3)CC[C@]12O`, the GI50 (MDA-MB-231) is reported as 5420 nM, the GI50 (A549) is reported as 353 nM and the GI50 (UACC-257) is reported as 2630 nM. For the same compound, the GI50 (HOP-92) was 2080 nM, the GI50 (UO-31) was 653 nM and the GI50 (KM12) was 3200 nM. For the same compound, the GI50 (SN12C) was 468 nM, the GI50 (NCI-H460) was 365 nM and the GI50 (CAKI-1) was 436 nM. It also gave a GI50 (NCI-H226) of 1760 nM, a GI50 (HT-29) of 689 nM and a GI50 (NCI-H522) of 377 nM. It also gave a GI50 (SW-620) of 559 nM, a GI50 (COLO 205) of 3400 nM and a GI50 (SK-MEL-28) of 2970 nM. It also gave a GI50 (U-251) of 1280 nM, a GI50 (OVCAR-3) of 531 nM and a GI50 (HCC 2998) of 4320 nM. The GI50 (OVCAR-5) was 2360 nM, the GI50 (CCRF-CEM) was 588 nM and the GI50 (MDA-MB-435) was 1800 nM. The GI50 (MDA-MB-468) was 3750 nM, the GI50 (OVCAR-8) was 780 nM and the GI50 (Hs-578T) was 337 nM. For the same compound, the GI50 (NCI/ADR-RES) was 657 nM, the GI50 (ACHN) was 351 nM and the GI50 (MOLT-4) was 369 nM. It also gave a GI50 (DU-145) of 478 nM, a GI50 (NCI-H322M) of 1230 nM and a GI50 (UACC-62) of 1760 nM. For the same compound, the GI50 (HCT-15) was 808 nM, the GI50 (HCT-116) was 399 nM and the GI50 (786-0) was 541 nM. The GI50 (HL-60) was 563 nM, the GI50 (SK-MEL-5) was 703 nM and the GI50 (PC-3) was 1330 nM. It also gave a GI50 (HOP-62) of 454 nM, a GI50 (M14) of 2570 nM and a GI50 (SNB-75) of 1170 nM. It also gave a GI50 (Malme-3M) of 1260 nM, a GI50 (SK-MEL-2) of 2330 nM and a GI50 (SF-539) of 577 nM. The GI50 (SK-OV-3) was 2670 nM, the GI50 (RXF 393) was 298 nM and the GI50 (IGROV-1) was 1820 nM. It also gave a GI50 (NCI-H23) of 664 nM, a GI50 (SF-268) of 538 nM and a GI50 (SF-295) of 660 nM. The GI50 (SNB-19) was 3860 nM, the GI50 (T47D) was 1540 nM and the GI50 (TK-10) was 750 nM. For the same compound, the GI50 (LOX IMVI) was 1030 nM, the GI50 (BT-549) was 371 nM and the GI50 (SR) was 1100 nM. For the same compound, the GI50 (K562) was 1390 nM, the GI50 (A498) was 362 nM and the GI50 (MCF7) was 473 nM.
